Assay results published in patent US12458659B2, “Methods for treating macrophage-mediated diseases, and methods of identifying agents useful therefore” (The Regents of the University of California, priority 2019, dated 2025).

Legend:
NLRP3 inflammasome = assay: IL-1β release by LPS-primed macrophages stimulated with NLRP3 activators (ELISA); format: cell-based, mouse; conditions: BMDM pretreated with A769662, LPS-primed, ATP and nigericin 40 min
Method: Macrophage culture and stimulation—Femurs and tibias from C57BL/6 mice, Ampkα1^−/− mice, and Il10rb^−/− mice at 6-10 weeks of age were used to generate bone-marrow-derived macrophages (BMDM) as described (Hornung et al., 2008). Macrophages were cultured in DMEM supplemented with 10% FBS, 20% L929-cell conditioned medium, and 100 U/ml penicillin-streptomycin for 7-10 days. Bone marrow was isolated from MWS Nlrp3^A350VneoRCreT, FCAS Nlrp3^L351PneoCreT and NOMID Nlrp3^D301NneoCreT conditional knock-in mice (Bonar et al., 2012; Brydges et al., 2009), and were allowed to differentiate over 7 days with addition of fresh mouse recombinant GMCSF every three days. (Z)-4-hydroxitamoxifen at 0.4 μg/ml was added to cells 24 hr prior to treatment to induce the mutant Nlrp3 allele. Immortalized mouse BMDM were grown in DMEM supplemented with 10% FBS and 100 U/ml penicillin-streptomycin. All cells were grown at 37° C. with 5% CO2. NLRP3 inflammasome activation was induced priming for 4 hr with ultrapure LPS (100 ng/ml) followed by treatment with the NLRP3 activators ATP (4 mM) and nigericin (10 μM) for 45 min, unless otherwise indicated, and monosodium urate (MSU) crystals (400 μg/ml) and 1,2-dioleoyl-3-trimethylammoniumpropane (DOTAP) liposomes (50 μg/ml) for 3 hr. In Nlrp3 mutant macrophages IL-1b production was induced by LPS treatment for 16 hr at 37° C., whereas FCAS macrophages were incubated at 32° C. without LPS addition. AIM2 inflammasome activation was induced by 4 hr LPS priming and transfection with lipofectamine 3000 and the AIM2 activator poly(dA:dT) (1 μg/ml) for 8 hr. For choline deprivation experiments, the cells were cultured in CMRL1066 medium with or without choline for 2-3 hr before priming with LPS and kept during the experiment.
(§1) Protein Immunoblotting and ELISA—Mitochondria were isolated using Mitochondria Isolation kit. Whole cell lysates were prepared in NP40 buffer containing a protease inhibitor cocktail and a phosphatase inhibitor cocktail, and supernatants were analyzed by SDS-PAGE. […]

CTL1 [1] = assay: CTL1 protein expression in LPS stimulated BMDM (immunoblot); format: cell-based, mouse; conditions: LPS stimulation
Sequence of CTL1 (Q6X893 whole entry): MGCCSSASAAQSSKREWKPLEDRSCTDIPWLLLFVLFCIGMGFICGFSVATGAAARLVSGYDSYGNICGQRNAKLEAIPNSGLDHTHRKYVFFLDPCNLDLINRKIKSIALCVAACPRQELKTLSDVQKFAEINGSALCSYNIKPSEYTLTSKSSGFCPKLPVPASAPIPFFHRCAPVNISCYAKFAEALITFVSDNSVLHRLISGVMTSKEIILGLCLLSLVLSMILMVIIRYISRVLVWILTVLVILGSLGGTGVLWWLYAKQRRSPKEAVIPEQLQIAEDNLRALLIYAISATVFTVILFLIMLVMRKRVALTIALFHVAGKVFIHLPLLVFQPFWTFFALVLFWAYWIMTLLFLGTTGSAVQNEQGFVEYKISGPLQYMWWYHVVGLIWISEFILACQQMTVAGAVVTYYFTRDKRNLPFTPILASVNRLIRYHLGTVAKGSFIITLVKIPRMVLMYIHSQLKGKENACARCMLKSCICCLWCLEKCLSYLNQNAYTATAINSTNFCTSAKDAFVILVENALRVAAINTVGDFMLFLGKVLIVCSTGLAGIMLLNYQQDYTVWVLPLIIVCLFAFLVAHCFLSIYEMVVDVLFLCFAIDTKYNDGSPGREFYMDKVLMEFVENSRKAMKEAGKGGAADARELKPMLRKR
Method: Macrophage culture and stimulation—Femurs and tibias from C57BL/6 mice, Ampkα1^−/− mice, and Il10rb^−/− mice at 6-10 weeks of age were used to generate bone-marrow-derived macrophages (BMDM) as described (Hornung et al., 2008). Macrophages were cultured in DMEM supplemented with 10% FBS, 20% L929-cell conditioned medium, and 100 U/ml penicillin-streptomycin for 7-10 days. Bone marrow was isolated from MWS Nlrp3^A350VneoRCreT, FCAS Nlrp3^L351PneoCreT and NOMID Nlrp3^D301NneoCreT conditional knock-in mice (Bonar et al., 2012; Brydges et al., 2009), and were allowed to differentiate over 7 days with addition of fresh mouse recombinant GMCSF every three days. (Z)-4-hydroxitamoxifen at 0.4 μg/ml was added to cells 24 hr prior to treatment to induce the mutant Nlrp3 allele. Immortalized mouse BMDM were grown in DMEM supplemented with 10% FBS and 100 U/ml penicillin-streptomycin. All cells were grown at 37° C. with 5% CO2. […]
as §1

[2] = system: choline mobilization via the Kennedy pathway; assay: Choline, phosphocholine and phosphatidylcholine content of LPS-stimulated BMDM (NMR, MS); format: cell-based, mouse; conditions: BMDM, LPS 4 hr
Method: Choline and Phosphocholine Analysis by NMR—BMDM were treated with LPS for 4 hr and then were collected and processed for NMR analysis as described (Guma et al., 2015a; Tiziani et al., 2009). Polar metabolite isolation was performed using a modified Bligh-Dyer procedure (Wu et al., 2008). Extracts were dried using a CentriVap refrigerated vacuum concentrator (Labconco, Kansas City, MO, USA). Dried extracts were reconstituted in 100 mM phosphate buffer (pH 7.0) prepared in 10% H2O/90% D2O (Sigma) that contained 0.5 mM sodium 3-(trimethylsilyl)propionate-2,2,3,3,-d4 (TMSP) as the internal standard. One-dimensional ^1H NMR spectra were acquired on a Bruker Avance III 500 MHz with 1.7 mm TCI MicroCryoProbe system (Bruker BioSpin Corp., Billerica, MA) equipped with an autosampler at 300 K and processed as previously described (Lodi et al., 2017; Lu et al., 2017; Ludwig and Gunther, 2011). Metabolite assignment and quantification were performed using the Chenomx 8.2 NMR Suite (Chenomx Inc., Edmonton, Alberta, Canada), the Birmingham Metabolite Library (Ludwig et al., 2012), and the Human Metabolome Database (Wishart et al., 2012).
Total phosphatidylcholine and mitochondrial lipids analysis by mass spectrometry—Total phosphatydilcholine (PC) analysis was measured in RSM932A-pretreated BMDM stimulated with LPS for 4 hr, while mitochondrial lipids were measured in mitochondria isolated from BMDM cultured in control or choline deficient medium and subjected to different treatments for 24 hr. Samples were processed for UHPLC-MS/MS analysis and analysis was performed on a hybrid quadrupole-Orbitrap mass spectrometer (Q Exactive, Thermo Scientific, Bremen, Germany) coupled to an Accela 1250 UHPLC system equipped with a quaternary pump, vacuum degasser, and open autosampler with temperature controller (6° C.; Fisher Scientific, San Jose, CA, USA). […]

CTL1 [3] = assay: CTL1 levels after colchicine treatment; format: cell-based
ChoKα = ChoKα levels after colchicine treatment; format: cell-based
[4] = system: MWS Nlrp3^A350VneoRCreT mutant mice; assay: Muckle Wells Syndrome mice; format: in vivo, mouse; conditions: 2.5 mg/kg IP BID for 15 days
Method: Muckle Wells Syndrome Mice—Sixteen- to twenty-two-week-old male MWS Nlrp3^A350VneoRCreT mutant mice were subjected to MN58b (2.5 mg/kg) or vehicle IP injection BID daily for 15 days. Tamoxifen (50 mg/kg) was administered daily via IP for 4 days after first MN58b (or vehicle) treatment, and once more on day 7 to maintain Cre expression. At the endpoint, blood, spleen and liver were collected for analysis. Complete blood counts were preformed using a ScilVet Animal Blood Counter (ABX Diagnostics). Livers were paraffin embedded and hematoxylin and eosine staining was performed to assess liver histology. None of the animals was excluded from the analysis and liver histology was blind examined.

C57BL/6 mice [5] = assay: Synovium-like air pouch gout model (MSU crystals); format: in vivo, mouse
Method: Synovium-like air pouch gout model—Subcutaneous air pouches were generated by repeated injection of sterile air into 8-12-week old C57BL/6 mice to create an accessible space that develops a synovium-like membrane within 7 days as described (Wang et al., 2016). Afterward, mice were treated with MN58b IP (2.5 mg/kg) or vehicle, 24 hr before injecting lml MSU crystals (3 mg/ml) into the air pouch. Pouch tissue and fluids were harvested 8 hr later for analysis. None of the animals was excluded from the analysis.

C57BL/6 mice [6] = assay: LPS-induced septic shock; format: in vivo, mouse
Method: LPS-induced septic shock and air pouch model—Eight- to twelve-week-old C57BL/6 mice were subjected to LPS-induced septic shock as described (Zhong et al., 2016c). Briefly, 50 mg/kg LPS was intraperitoneal (IP) injected, and when indicated, animals were pretreated with the ChoKα inhibitor MN58B 2.5 mg/kg or vehicle (sodium chloride) via IP injection daily, starting three days before LPS challenge. Mice were analyzed for survival and circulating cytokines (3 hr after LPS challenge). None of the animals was excluded from the analysis.

Slc44a1/CTL1 = Slc44a1/CTL1 induction by LPS in BMDM (QPCR); format: cell-based, mouse; conditions: BMS345541-pretreated BMDM treated with LPS
Method: RNA Isolation and Quantitative Real-Time PCT (QPCR)—RNA was extracted using AllPrep DNA/RNA Mini kit, and cDNA was synthesized using SUPERSCRIPT™ VILO™ cDNA Synthesis Kit. mRNA expression was determined by QPCR in a CFX96 thermal cycler (Biorad) as described (Zhong et al., 2016c). Data are presented in arbitrary units and were calculated by 2^(-delta delta CT) method. Primer sequences were obtained from the NIH qPrimerDepot (mouseprimerdepot.nci.nih.gov) and provided by Integrated DNA technologies, as set forth below.

N#Cc1c(O)c2c(-c3ccc(-c4ccccc4O)cc3)csc2[nH]c1=O [A769662]
IL-1β production (NLRP3 inflammasome): significantly reduced

lipopolysaccharide [LPS]
increase of CTL1 expression (CTL1 [1]): 6 fold
increase of phosphocholine ([2]; p<0.001): 559%
increase of intracellular choline ([2]; p<0.01): 238%

COc1cc2c(c(OC)c1OC)-c1ccc(OC)c(=O)cc1[C@@H](NC(C)=O)CC2 [colchicine]
reduction of CTL1 levels (CTL1 [3]): 90%
reduction of ChoKα levels (ChoKα): 85%

CN(C)c1cc[n+](Cc2ccc(CCCCc3ccc(C[n+]4ccc(N(C)C)cc4)cc3)cc2)cc1.[Br-].[Br-] [MN58b]
MWS splenomegaly [4]: reduced
granulocytes [4]: reduction
liver size [4]: reduced
lymphocyte count [4]: without an effect
monocytes [4]: reduction
total white blood cells count [4]: reduction
total leukocyte recruitment into the pouch (C57BL/6 mice [5]; 2.5 mg/kg 24 hr before MSU crystals): attenuated
production of IL-1β (C57BL/6 mice [5]; 2.5 mg/kg 24 hr before MSU crystals, pouch): reduced
reduction of IL-1β release (C57BL/6 mice [5]; 2.5 mg/kg IP 24 hr before MSU crystals, pouch harvested 8 hr later, p<0.01): 66%
reduction of MSU crystal-induced leukocyte recruitment (C57BL/6 mice [5]; 2.5 mg/kg IP 24 hr before MSU crystals, pouch harvested 8 hr later, p<0.05): 47%
LPS-induced death (C57BL/6 mice [6]; 2.5 mg/kg IP daily for 3 days before 50 mg/kg LPS IP): prevented
circulating IL-1β (C57BL/6 mice [6]; 2.5 mg/kg IP daily for 3 days before LPS, 3 hr after LPS): reduced
IL-6 production (C57BL/6 mice [6]; circulating, 3 hr after LPS): did not inhibit
TNF production (C57BL/6 mice [6]; circulating, 3 hr after LPS): did not inhibit

Cc1ccc2nc(NCCN)c3ncc(C)n3c2c1 [BMS345541]
Slc44a1/CTL1 induction (Slc44a1/CTL1): blocked
